Test system: T cell clone HER500.23c21
Test: HLA-DR restriction: blocking anti-MHC class II antibodies in HERp270-284 stimulation of HER500.23c21 (IFNγ ELISA)
Assay type: cell-based, human
Conditions: antibody blocking with anti-HLA-DR and anti-HLA-DP/-DQ
Method: FIG. 3. HLA-DR Restriction. Autologous EBV-LcL at 2×10^5 cells/mL and HERp270-284 was used to stimulate the T cell clone HER500.23c21 (1×10^5 cells/well), with and without the addition of blocking anti-MHC class II antibodies. Anti-HLA-DR ♦ and anti-HLA-DQ/anti-HLA-DP ▪ were titrated at the concentrations shown in cRPMI+10% FBS. Wells also contained EBV-LcLs, HER500.23c21T cell clone and peptide (1 μg/mL). Assay was incubated for 48 hours at 37° C. with 5% CO2. Supernatants were harvested and frozen at −20° C. and at a later date, analyzed for IFNγ production using ELISA. Multiple experiments were performed, mean triplicate values for one representative experiment is shown.
HLA-DR Restriction and Promiscuity. To determine HLA-DR restriction of the T cell epitope HERp270-284, anti-HLA-DR mAb L243, HLA-DQ mAb 1a3 or HLA-DP mAb B7/21 (20-1.25 μg/mL) were cultured with T cell clone HER.23c21, peptide HERp270-284 and autologous EBV-LcL in cRPMI+10% FBS media. Supernatants were harvested after 48 hours and tested for IL-2 and IFNγ production. […]
In order to determine which HLA molecules were responsible for presenting HERp270-284 to HER500.23c21, HLA-blocking antibodies were used to inhibit presentation and T cell activation. […] T cell stimulation was determined by IFNγ production.

Sequence: ALVTYNTDTFESMPN (HER-2/Neu peptide 270-284, HER500 peptide #63, HERp270-284, HER-2/Neu epitope 270-284, residues 3-17 of SEQ ID NO1) [Peptide 63]
- HLA restriction of HER500.23c21 recognition: HLA-DR restricted

— patent US8263757B2, “Promiscuous HER-2/Neu CD4 T cell epitopes” (Dendreon Corporation, priority 2006, dated 2012)
